According to US11246929B2, “Combination of a protein kinase inhibitor and an additional chemotherapeutic agent” (Merck Patent GmbH, priority 2016, dated 2022):

Legend:
[1] = tested on: myeloid and lymphoid cells; assay: Hematology study, blood cell counts in immunocompetent mice; type: in vivo, mouse; settings: addition of Compound 1 to etoposide/cisplatin
Excerpt: For efficacy xenograft study 1014-1-58/BKU00105 female CD1 nu/nu mice [internal Batch ID 04108; Charles River Laboratories, Sulzfeld, Germany], aged 6-8 weeks, were used. For the hematology study 1015-1-3/BKU00106 immunocompetent female CD1 mice [internal Batch ID1406; Janvier Labs, Genest-Saint-Isle, France], aged 12 weeks were used. The mice were acclimatized to the housing conditions for 1 week. They were kept in groups of 10 in polysulfone cages Type III (42.5×26.6×15.5 cm; Techniplast, Hohenpeissenberg). Bedding consisted of aspen chips (E. Becker, Castrop-Rauxel). Room temperature was 24+/−2° C. and relative humidity was 50+/−10% at 15 air changes per hour. Drinking water (provided ad libitum) was supplemented with 1 mg/mL Chlorine and was adjusted to a pH of 6.5 with HCl. […]
The hematology data were evaluated by RM-ANOVA and Bonferroni multiple comparisons post test comparing the blood cell counts of the respective combination groups to the blood cell counts of the SoC only treatment group.
In parallel with the antitumor effect of the etoposide/cisplatin/Compound 1 combination, the effect on myeloid and lymphoid cells was investigated in immunocompetent mice (refer to ONC1015-1-3AZ). […] Blood cell count was determined under treatment (days 5 and 11) and during recovery (days 18 and 24).

FaDu = assay: AlamarBlue viability assay; type: cell-based, human
Method: (§1) Compound 1 in combination with etoposide or cisplatin was tested in the following cancer cell lines for inhibition of tumor cells: human lung carcinoma (NCI-H460), human glioblastoma (MO59K and MO59J), and human squamous cell carcinoma pharynx (FaDu). Details of the assay protocol and material utilized are set forth below.
(§2) Cells were plated in a volume of 180 μl/well in 96-well plates: (FaDu: 1000 cells/well (168 h); NCI-H460 3000 cells/well (72 h) and 1000 cells/well (168 h); MO59J: 5000 cells/well (72 h) and 2000 cells/well (168 h); MO59K: 2000c/well (72 h) and 1000 cells/well (168 h)) and incubated at 37° C. and relevant C02 for 24 h hours. 20 μl per well of medium including serial dilutions of Compound 1 and/or Etoposide or Cisplatin were added to the culture plates and the incubation was continued further for 3 days (72 h) or 7 days (168 h) at 37° C. and relevant CO2. Compound 1 was pre-incubated for 30 min before Etoposide or Cisplatin were added.
(§3) Cells were plated in 200 μl volume per well (FaDu: 1000 cells/well (168 h); NCI-H460 3000 cells/well (72 h) and 1000 cells/well (168 h); MO59J: 5000 cells/well (72 h) and 2000 cells/well (168 h); MO59K: 2000c/well (72 h) and 1000 cells/well (168 h)). After 24 h incubation at 37° C. Compound 1, Etoposide or Cisplatin were dispensed by using the Digital HP Dispenser D300 (and the included dispensing software). Plates were further incubated for 3 days (72 h) or 7 days (168 h) at 37° C. and relevant CO2.
(§4) At the end of the compound incubation period 20 μl AlamarBlue reagent was added per well and the 96-well plates were incubated further up to seven hours. Absorption was determined at 540 nm by using Tecan Reader Connect and Magelan 7.
(§5) 0% effect=cells treated with DMSO; −100% effect=no cells

MO59J (DNA-PK deficient) = assay: AlamarBlue viability assay; type: cell-based, human; settings: compound incubation for 168 h
Method: as §1, §2, §3, §4, §5

NCI-H460 = assay: AlamarBlue viability assay; type: cell-based, human
Method: as §1, §2, §3, §4, §5

HELA = assay: cells; settings: Homo sapiens, read-out: GI50 of etoposide (±Compound 1)
Method: Cell growth and treatment were performed in 96-well microtitre plates CELLSTAR® (Greiner Bio-One, Germany). Cells harvested from exponential phase cultures by trypsinization or by splitting (in the case of cells growing in suspension) were plated in 90 μl of media at optimal seeding densities. The optimal seeding density for each cell line was determined to ensure exponential growth for the duration of the experiment. All cells growing without anticancer agents were sub-confluent by the end of the treatment, as determined by visual inspection.
90 μl of cells, after a 48-hour pre-growth period, were treated by mixing with 10 μl of the compound-containing media (resulting in a final DMSO concentration of 0.1%). The cells were allowed to grow at 37° C. for 72 (or 120) hours.
Cells were fixed to the surface by addition of 10% TCA (for adherent growing cells) or 50% TCA (for semi-adherent growing cell or cells growing in suspension). After an hour of incubation at 4° C. plates were washed twice with 200 μl of deionized water and dried. Cells were then stained with 100 μl of 0.04% w/v SRB. […]
Using these measurements, cellular responses can be calculated for incomplete inhibition of cell growth (GI), complete inhibition of cell growth (TGI) and net loss of cells (LC) due to compound activity. […] TGI was calculated from Ti=Tz. […] It was calculated as 100×[(Ti−Tz)/Tz]=−50.

SMILES | blood cell reduction and recovery [1] | inhibition of viability, combination with etoposide (FaDu) | combination effect with Etoposide on viability (MO59J (DNA-PK deficient)) | combination effect with cisplatin on viability (NCI-H460) | inhibition of viability, combination with etoposide (NCI-H460) | GI50 (HELA)
COc1ccc([C@@H](O)c2cc(-c3ncnc4cc(N5CCOCC5)ccc34)c(F)cc2Cl)nn1 [Compound 1, (S)-[2-chloro-4-fluoro-5-(7-morpholin-4-yl-quinazolin-4-yl)-phenyl]-(6-methoxy-pyridazin-3-yl)-methanol] | did not significantly affect blood cell reduction nor the recovery phase | enhanced inhibition of viability | no such combination effect | No significant combination effect | enhanced inhibition of viability | 
COc1cc([C@@H]2c3cc4c(cc3[C@@H](O[C@@H]3O[C@@H]5CO[C@@H](C)O[C@H]5[C@H](O)[C@H]3O)[C@H]3COC(=O)[C@H]23)OCO4)cc(OC)c1O [Etoposide] |  |  |  |  |  | 2360 nM
